Laboratory results published in patent US20120065198A2, “Detection and Treatment of Schizophrenia” (Tokai University Educational System, priority 2007, published 2012).

Tests used:
pentosidine formation [1] = test: Inhibitory effect on AGEs (pentosidine) formation in serum of renal failure patients; assay type: biochemical, human; conditions: final concentration 5 mM, 1 week at 37° C.; for Pentosidine Formation Ratio (%): control as 100%; for AGE Formation Inhibition Ratio (%): determined from the pentosidine formation ratio
Protocol: To 450 μl of protein (serum of renal failure patients with an informed consent) was added 50 μl of a solution of each test compound in dimethylsulfoxide (final concentration: 5 mM), and the resulting mixture was incubated for 1 week at 37° C. The quantity of pentosidine, which is one of the AGEs formed, was subsequently measured as follows.
First, in order to release the pentosidine formed in the protein, 50 μl of 10% trichloroacetic acid was added to 50 μl of the reacted sample, and the mixture was centrifuged to precipitate the protein that was then collected. The collected protein was washed with 300 μl of 5% trichloroacetic acid and dried; 100 μl of 6 N hydrochloric acid was subsequently added, and hydrolysis was performed for 16 hours at 110° C. The quantity of pentosidine (nmol/l) formed was measured by HPLC using a fluorescence detector (ODS C18, 4.6×250 mm, 335 nm, 385 nm), according to a gradient method (30 minutes, 1.0 ml/min) using a mobile phase of distilled water containing 0.1% trifluoroacetic acid/80% acetonitrile containing 0.08% trifluoroacetic acid (Miyata, T et al.,: J. Am. Soc., Nephrol., 7, 1198-1206, 1996; Miyata, T., et al., Proc. Natl. Acad. Sci., USA, 93 2353-2358, 1996).
In order to evaluate the inhibitory effect of each test compound on AGE formation, the proportion of the quantity of pentosidine formed was calculated as the ratio (%) of pentosidine formation relative to the quantity of pentosidine formed with a control as 100%. Further, from the calculated value, the ratio of inhibition of pentosidine formation (the ratio (%) of inhibition of AGE formation) was also determined.

pentosidine formation [2] = test: Inhibitory effect on pentosidine formation in plasma of hemodialysis patients; assay type: biochemical, human; conditions: final concentrations 0.8, 2.0, and 5.0 mM, 1 week at 37° C., FIG. 13
Protocol: Plasma was collected from hemodialysis patients prior to dialysis with the patients' consent, and the plasma was filtered and sterilized. To the plasma (450 μL) was added solutions of TM-2002 in dimethylsulfoxide (50 μL) (final concentrations: 0.8, 2.0, and 5.0 mM), and the mixtures were incubated for 1 week at 37° C. The levels of the pentosidine formation were measured.
Pentosidine was measured as follows. To each sample (50 μL) after incubation was added an equal volume of 10% trichloroacetic acid, and the mixture was subsequently centrifuged at 5,000 g for 5 minutes. After the supernatant was removed, the pellet was washed with 5% trichloroacetic acid (300 μL). […] The concentration of the released pentosidine was measured by reverse-phase HPLC using a fluorescence detector (RF-10A, Shimadzu Corporation) (Miyata, T. et al.; Proc. Natl. Acad. Sci. USA, Vol. 93, p. 2353-2358, 1996). The effluent was monitored at the excitation/emission wavelength of 335/385 nm. […]
The inhibitory effect was evaluated by comparison with a positive control (pyridoxamine (Sigma)), which was reacted in the same manner as Compound TM-2002. […] The results (the quantities of pentosidine: nmol/ml) are shown in FIG. 13, wherein the “control” hereinbelow means a negative control using only the solvent.

For `CC1=NN(c2cccc([N+](=O)[O-])c2)C(=O)C1Sc1nnnn1-c1ccccc1` (stereo not shown) [(13)], the “Pentosidine Formation Ratio (%)” value (pentosidine formation [1]) was 45.4% and the “AGE Formation Inhibition Ratio (%)” value (pentosidine formation [1]) was 54.6%.

`O=C(NC1=NN(c2ccccc2)C(=O)C1Sc1nnnn1-c1ccccc1)c1ccccc1` (stereo not shown) [(14)] was tested, and the “Pentosidine Formation Ratio (%)” value (pentosidine formation [1]) was 22.1% and the “AGE Formation Inhibition Ratio (%)” value (pentosidine formation [1]) was 77.9%.

In the case of `C/C(=N\O)C1C(=O)N(c2ccccc2)N=C1c1ccccc1` (stereo not shown) [(16)], the “Pentosidine Formation Ratio (%)” value (pentosidine formation [1]) is reported as 25.8% and the “AGE Formation Inhibition Ratio (%)” value (pentosidine formation [1]) is reported as 74.2%.

With `CC1=NN(c2ccccc2)C(=O)C1C1C(=O)N(c2ccccc2)N=C1C` (stereo not shown) [(17)] the “Pentosidine Formation Ratio (%)” value (pentosidine formation [1]) was 35.0% and the “AGE Formation Inhibition Ratio (%)” value (pentosidine formation [1]) was 65.0%.

`CCC1C(=O)N(c2ccc(Cl)cc2)N=C1C` (stereo not shown) [(18)] was tested, and the “Pentosidine Formation Ratio (%)” value (pentosidine formation [1]) was 18.0% and the “AGE Formation Inhibition Ratio (%)” value (pentosidine formation [1]) was 82.0%.

With `CCCC1=NN(c2ccccc2)C(=O)C1CC(=O)c1ccccc1` (stereo not shown) [(20)] the “Pentosidine Formation Ratio (%)” value (pentosidine formation [1]) was 12.4% and the “AGE Formation Inhibition Ratio (%)” value (pentosidine formation [1]) was 87.6%.

For `Cc1ncc2c(c1O)C(c1c(C)nn(-c3ccccc3)c1O)OC2` (stereo not shown) [No. 68, 1-(5-hydroxy-3-methyl-1-phenyl-1H-pyrazol-4-yl)-6-methyl-1,3-dihydro-furo[3,4-c]pyridin-7-ol], the “inhibition of pentosidine formation compared to pyridoxamine (positive control)” value (pentosidine formation [2]) was “significantly inhibits the pentosidine formation as compared to pyridoxamine”.
